“Also recorded” adds a separate entry of the source.
Experiments:
[1] = system: HORMAD1-positive and HORMAD1-negative triple negative breast cancer patient-derived organoids; assay: Patient-derived TNBC organoids, viability by cell titre glo; assay type: cell-based, human; conditions: 14 days
Description: RPE1 cells were reverse transfected with BUB1 or control siRNA particles for 3 days. Cell lysates were collected, and analysed by western blotting using anti-BUB1 and anti-β-ACTIN antibodies. B. Graph indicating reduced cellular survival in HORMAD1 expressing RPE1 cells depleted of BUB1 using siRNA. RPE1 cells expressing a doxycycline-inducible HORMAD1 expression construct were exposed to doxycycline or vehicle, and were reverse transfected with BUB1 or control siRNA particles. 5 days post transfection, cellular viability was estimated using cell titer glo reagent and surviving fractions were calculated relative to DMSO treated cells. […] Statistical significance estimated using a one-way ANOVA with Sidak's correction. C. […] 7-10 days post doxycycline induction, cells were fixed, stained with SRB, and cellular viability was estimated using SRB absorbance readings. […] Cells were fixed, stained with SRB, and cellular viability was estimated using SRB absorbance readings. […] Cells were imaged every 4 hours, and confluence was continually measured using incucyte software. […] Cellular viability was estimated using cell titer glo reagent and surviving fractions were calculated relative to DMSO treated cells. […]
A further experiment was conducted to test the efficacy of BUB1 inhibitors to selectively kill HORMAD1-positive human tumours. […] Surviving fractions were calculated (normalised to vehicle treated cells). […]

[2] = system: organoids from spontaneous tumours of WB1P mouse with or without human HORMAD1; assay: Organoids from genetically engineered mouse model tumours, viability by cell titre glo; assay type: cell-based; conditions: increasing doses, 14 days post drugging
Description: In a further experiment, HORMAD1 was expressed within a genetically engineered mouse model of triple-negative breast cancer (original model published in Annunziato et al., 2019). Human HORMAD1 was expressed in the WB1P mouse (Annunziato et al., 2019) using a transgene and derived organoids from spontaneous tumours.
Genetically engineered mouse models were generated by conditionally deleting BRCA1 and P53 in breast epithelia (Liu et al., 2007). Human HORMAD1 fused to luciferase was conditionally expressed under a breast-specific promoter. Spontaneous tumours from these mice were isolated and grown as organoids, treated with increasing doses of BUB1 inhibitor, BAY-1816032. 14 days post drugging, cell viability was estimated using cell titre glo reagent. Surviving fractions were calculated (normalised to vehicle treated cells). Data from 3 replicas, analysed using 2-way ANOVA.

CCN(CCO)CCCOc1ccc2c(Nc3cc(CC(=O)Nc4cccc(F)c4)[nH]n3)ncnc2c1 [AZD1152-HQPA]
growth inhibition of HORMAD1 expressing versus HORMAD1-negative patient-derived organoids (AURORA B inhibitor) ([1]; BTBC673PO versus WHIM21XO, BXO88XO, BXO78XO): growth inhibition was more effective

COc1cnccc1Nc1nc(-c2nn(Cc3c(F)cc(OCCO)cc3F)c3ccccc23)ncc1OC [BAY-1816032]
growth inhibition of HORMAD1-expressing versus HORMAD1-negative patient-derived organoids (BUB1 inhibitor) ([1]; 3 HORMAD1-positive and 5 HORMAD1-negative models): more effectively inhibited; also recorded: increased BUB1 inhibitor sensitivity
growth inhibition of HORMAD1-expressing versus HORMAD1-negative mouse tumour organoids [2]: more effectively inhibited

Source: patent publication US20240050434A1, “HORMAD1 THERAPEUTICS” (Royal Cancer Hospital, priority 2020, published 2024)
